The values below come from US9333272B2, “Fibrin binding peptide conjugates for diagnostic and therapeutic applications” (Bracco Imaging SpA, priority 2006, dated 2016).

The target in assay [1] is T1, fibrin in tumor, mammary tumor mouse model (BALB-neuT) (Mus musculus, UniProt E9PV24+Q8K0E8+Q8VCM7).
T1 construct: from tissue; host or cells: tumor stroma of living mice (BALB-neuT mammary tumor, TRAMP prostate tumor, Neuro-2a neuroblastoma in A/J mice)
T1 sequence (E9PV24 20-557 isoform E9PV24-2 limits assumed): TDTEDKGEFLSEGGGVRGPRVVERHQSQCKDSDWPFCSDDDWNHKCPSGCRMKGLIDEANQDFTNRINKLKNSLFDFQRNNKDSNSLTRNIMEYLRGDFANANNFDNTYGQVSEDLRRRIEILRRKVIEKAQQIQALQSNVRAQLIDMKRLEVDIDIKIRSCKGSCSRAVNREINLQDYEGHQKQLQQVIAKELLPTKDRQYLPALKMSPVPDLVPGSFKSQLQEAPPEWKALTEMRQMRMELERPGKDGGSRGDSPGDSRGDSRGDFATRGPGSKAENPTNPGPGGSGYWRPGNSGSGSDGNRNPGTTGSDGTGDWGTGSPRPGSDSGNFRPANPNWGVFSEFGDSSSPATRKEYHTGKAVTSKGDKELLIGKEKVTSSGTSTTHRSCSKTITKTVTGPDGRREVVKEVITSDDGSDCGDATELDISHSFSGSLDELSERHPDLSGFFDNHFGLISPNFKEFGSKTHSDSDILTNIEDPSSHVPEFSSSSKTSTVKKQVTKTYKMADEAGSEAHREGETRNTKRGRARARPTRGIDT
T1 sequence (Q8K0E8 35-481 limits assumed): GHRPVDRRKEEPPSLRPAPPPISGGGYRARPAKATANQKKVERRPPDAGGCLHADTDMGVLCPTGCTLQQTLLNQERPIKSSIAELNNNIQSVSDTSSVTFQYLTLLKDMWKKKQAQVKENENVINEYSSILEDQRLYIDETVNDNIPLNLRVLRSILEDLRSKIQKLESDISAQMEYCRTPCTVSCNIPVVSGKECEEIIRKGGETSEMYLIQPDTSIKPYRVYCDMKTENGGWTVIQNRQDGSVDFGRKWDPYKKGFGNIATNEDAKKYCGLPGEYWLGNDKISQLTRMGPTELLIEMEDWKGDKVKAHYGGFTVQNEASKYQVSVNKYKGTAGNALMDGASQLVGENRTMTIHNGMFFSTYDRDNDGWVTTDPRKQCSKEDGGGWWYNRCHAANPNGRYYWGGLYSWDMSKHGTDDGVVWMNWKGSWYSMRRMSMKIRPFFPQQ
T1 sequence (Q8VCM7 26-436): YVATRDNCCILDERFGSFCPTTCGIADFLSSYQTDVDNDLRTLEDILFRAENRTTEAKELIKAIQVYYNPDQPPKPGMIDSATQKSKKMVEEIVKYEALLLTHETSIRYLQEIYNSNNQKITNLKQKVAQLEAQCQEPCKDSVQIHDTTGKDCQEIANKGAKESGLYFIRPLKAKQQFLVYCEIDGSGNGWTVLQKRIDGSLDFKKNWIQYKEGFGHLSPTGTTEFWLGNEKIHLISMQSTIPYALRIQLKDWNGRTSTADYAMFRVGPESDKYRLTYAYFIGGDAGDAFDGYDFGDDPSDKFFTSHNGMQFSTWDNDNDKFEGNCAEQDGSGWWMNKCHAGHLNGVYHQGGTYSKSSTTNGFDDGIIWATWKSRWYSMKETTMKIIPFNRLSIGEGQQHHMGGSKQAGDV
Kind of assay: In vivo MRI, mammary tumor mouse model (BALB-neuT), Example 16. As to conditions: 100 μmol/kg; reference compound. The protocol:
The test has been performed in a mammary tumor mouse model (BALB-neuT). Mice were treated with Chelate Complex 2 of the invention, 25 μmol/kg, injected iv, and with ProHance® at 100 μmol/kg. Signal enhancement of the tumor was followed up to 3 h after contrast administration.
Successive T1 weighted SE images were acquired pre- and post-injection of the test compounds and some examples are reported in FIGS. 6 and 7. Images are related to successive slices from the same mouse acquired at different time points post contrast. In particular, FIG. 6 includes images post-injection of chelate Complex 2 at 25 μmol/kg (arrows indicate tumor) and FIG. 7 includes analogous images post administration of ProHance®.

Assay [2] concerns the target T2, fibrin in tumor, TRAMP prostate tumor (Mus musculus, UniProt E9PV24+Q8K0E8+Q8VCM7).
T2 construct: from tissue; host or cells: tumor stroma of living mice (BALB-neuT mammary tumor, TRAMP prostate tumor, Neuro-2a neuroblastoma in A/J mice)
T2 sequence (E9PV24 20-557 isoform E9PV24-2 limits assumed): T1 sequence (E9PV24 20-557 isoform E9PV24-2 limits assumed)
T2 sequence (Q8K0E8 35-481 limits assumed): T1 sequence (Q8K0E8 35-481 limits assumed)
T2 sequence (Q8VCM7 26-436): T1 sequence (Q8VCM7 26-436)
The assay is described as follows: In vivo MRI, transgenic adenocarcinoma mouse prostate model (TRAMP), Example 17. The settings on record: 100 μmol/kg iv; control. How it is done:
This test has been performed in a transgenic adenocarcinoma mouse prostate model (TRAMP) developed by introducing a PB promoter—SV40 T antigen fusion transgene (PB-Tag) into the germ line of C57BL/6 inbred mice.
Two TRAMP mice were treated with ProHance® at 100 μmol/kg iv (control), and the day after with Chelate Complex 2 or with Chelate Complex 5 at 25 μmol/kg iv. T1 weighted SE images were acquired pre- and post-contrast injection and the kinetic of enhancement in the tumor was followed up to 3 h post-test compound administration.

Regarding `CC(O)CN1CCN(CC(=O)[O-])CCN(CC(=O)[O-])CCN(CC(=O)[O-])CC1.[Gd+3]` (centres unmarked) [ProHance®], the “Tumor signal enhancement (T1 weighted MRI), in words” value in assay [1] was “signal distribution only on the border and no signal enhancement inside the tumors after 55 min”; in assay [2], “very weak signal enhancement”.
